This passage reports Ki and IC50 results from patent US11008340B2, “Modulators of ROR-gamma” (Vitae Pharmaceuticals, LLC, priority 2015, dated 2021).

Assay [1] has as its target T1, recombinant RORγ Ligand Binding Domain (LBD) protein (Homo sapiens, UniProt P51449).
T1 construct: 6×His; GST
T1 sequence (P51449 269-508 limits assumed): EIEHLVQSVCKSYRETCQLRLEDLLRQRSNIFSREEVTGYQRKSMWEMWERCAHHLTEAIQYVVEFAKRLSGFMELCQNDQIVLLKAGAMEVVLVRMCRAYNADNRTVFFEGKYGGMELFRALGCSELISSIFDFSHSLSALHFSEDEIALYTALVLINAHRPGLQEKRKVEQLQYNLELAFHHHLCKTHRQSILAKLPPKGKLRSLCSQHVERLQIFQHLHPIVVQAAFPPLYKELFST
Description: Radio-Ligand RORγ Binding Assay (Assay 1). To be noted: radio-ligand competition, 25-hydroxy [26,27-3H]-cholesterol, RORγ LBD; read-out: Avg ROR Bind Ki. The essentials: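 Cell-free SPA competition between compound and 25-hydroxy[26,27-^3H]-cholesterol for 6×His-GST-tagged RORγ LBD in 50 mM HEPES pH 7.4 with NaCl, MgCl2, glycerol, CHAPS, octylglucoside and DTT. Mix was shaken 20 min, held 10 min at rt, then read after poly-Lys YSi beads. IC50 came from a four-parameter fit, and Ki from radioligand KD.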

The target of assay [2] is T2, full-length RORγt in Jurkat cells (Homo sapiens, UniProt P51449).
T2 construct: transcriptional activity of the full-length RORγt in Jurkat cells; host or cells: Jurkat cells (ATCC TIB-152)
T2 sequence (P51449 1-497 isoform P51449-2): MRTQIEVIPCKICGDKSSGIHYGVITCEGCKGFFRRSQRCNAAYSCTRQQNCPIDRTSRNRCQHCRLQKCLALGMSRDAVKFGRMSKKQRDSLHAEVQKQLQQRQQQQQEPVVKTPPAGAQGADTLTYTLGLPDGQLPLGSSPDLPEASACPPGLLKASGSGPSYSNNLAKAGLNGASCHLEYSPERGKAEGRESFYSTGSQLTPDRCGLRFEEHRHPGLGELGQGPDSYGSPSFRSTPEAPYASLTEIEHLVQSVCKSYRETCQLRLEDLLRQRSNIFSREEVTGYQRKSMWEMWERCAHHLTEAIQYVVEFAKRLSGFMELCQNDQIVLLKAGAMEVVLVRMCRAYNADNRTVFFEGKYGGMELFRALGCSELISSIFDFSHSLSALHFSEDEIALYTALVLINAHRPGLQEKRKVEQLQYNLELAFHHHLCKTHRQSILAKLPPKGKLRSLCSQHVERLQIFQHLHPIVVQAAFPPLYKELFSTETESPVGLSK
Description: RORγt 5×RORE Assay in Jurkat Cells (Assay 2). The assay is classed as cell-based. The following applies: 5×RORE luciferase reporter, Table 20, read-out: Avg ROR γt/5x IC5. The procedure: [formula] RORγt 5×RORE Assay in Jurkat Cells (Assay 2)
Compounds described herein were tested for RORγ inverse agonist activity in a cell-based, transcriptional activity assay. Secreted Nanoluc″ luciferase was used as a reporter for transcriptional activity of the full-length RORγt in Jurkat cells (ATCC, Cat. #TIB-152). A reporter plasmid was constructed by inserting 5 repeats of the ROR Response Element (RORE) […] (SEQ ID NO: 1) into a commercially available promoterless plasmid pNL1.3[secNluc] (Promega, Cat. #N1021) using KpnI and HindIII restriction sites. The expression plasmid for RORγt was purchased (Geneocopoeia, Cat. #EX-T6988-M02). Jurkat cells (30 million cells) were transfected with 11 μg of EX-T6988-MO2 and 26 μg of the reporter plasmid in OptiMEM® media using Lipofectamine LTX and Plus™ reagents (Life Technologies, Cat. #15338-100). After 5-6 hrs of incubation at 37° C./5% CO2, the cells were collected, resuspended in phenol-red free RPMI media containing 10% (v/v) delipidated FBS (Hyclone, Cat. #SH30855.03) and dispensed into 96-well clear bottom tissue culture plates (CoStar, Cat. #3603), at 80,000 cells per well. Tested compounds were added to the cells in the same media (final concentration of DMSO was 0.1% (v/v)), and the plates were incubated at 37° C./5% CO2 for 16-18 hrs. Luciferase activity in the conditioned supernatants was determined with NanoGlo® assay reagents (Promega, Cat. #N1130).
(In general: Reporter assays use an easily measured gene product as a stand-in for the process of interest.)

As usually defined, the Ki is the equilibrium dissociation constant of an inhibitor or competing ligand from its target. Consider `CC[C@@H]1CN(c2ccc(C(F)(F)F)cc2)C(=O)c2cc(C(=O)NCc3ccc(S(=O)(=O)CC)cc3)ccc21` (single isomer, unassigned) [Hy7-12.1], for which, in assay [1], the Ki was less than 100 nM. In assay [2], the IC50 lay within 100 to 1000 nM.

For `CC[C@H]1CN(c2ccc(C(F)(F)F)cc2)C(=O)c2cc(C(=O)NCc3ccc(S(=O)(=O)CC)cc3)ccc21` (single isomer, unassigned) [Hy7-12.2], the Ki in assay [1] is less than 100 nM. Moreover, the IC50 in assay [2] lay within 100 to 1000 nM.

In the case of `CC[C@@H]1CN(c2ncc(C(F)(F)F)cc2C)Cc2cc(C(=O)NCc3ccc(S(=O)(=O)CC)cc3)ccc21` (single isomer, unassigned) [Hy7-13.1], the Ki in assay [1] is less than 100 nM. The IC50 in assay [2] is less than 100 nM.

On to `CC[C@H]1CN(c2ncc(C(F)(F)F)cc2C)Cc2cc(C(=O)NCc3ccc(S(=O)(=O)CC)cc3)ccc21` (single isomer, unassigned) [Hy7-13.2], for which, in assay [1], the Ki is less than 100 nM. Besides, in assay [2], the IC50 is 100 to 1000 nM.

Take `CCS(=O)(=O)c1ccc(CNC(=O)c2ccc3c(c2)CN(c2nccc(C(F)(F)F)n2)C[C@H]3C(C)C)cc1` (single isomer, unassigned) [Hy7-14.1]: in assay [1], the Ki is less than 100 nM. Besides, the IC50 in assay [2] was more than 1000 nM.

Turning to `CCS(=O)(=O)c1ccc(CNC(=O)c2ccc3c(c2)CN(c2nccc(C(F)(F)F)n2)C[C@@H]3C(C)C)cc1` (single isomer, unassigned) [Hy7-14.2], the Ki in assay [1] is less than 100 nM. The IC50 in assay [2] is more than 1000 nM.

With `CCS(=O)(=O)c1ccc(CNC(=O)c2ccc3c(c2)CN(c2ncc(C(F)(F)F)cn2)C[C@H]3C(C)C)cc1` (single isomer, unassigned) [Hy7-15.1], the Ki in assay [1] was less than 100 nM. Further, the IC50 in assay [2] is 100 to 1000 nM.

As for `CCOC(=O)c1cnc(N2Cc3cc(C(=O)NCc4ccc(S(=O)(=O)CC)cc4)ccc3[C@H](C(C)C)C2)nc1` (single isomer, unassigned) [Hy7-16.1], the Ki in assay [1] was less than 100 nM. For the same compound, the IC50 in assay [2] was less than 100 nM.

Regarding `CCC1CN(c2ncc(C(F)(F)F)cn2)Cc2cc(C(=O)N[C@@H](CO)c3ccc(S(=O)(=O)CC)cc3)ccc21` (single isomer, unassigned) [Hy7-17.1], the inhibition constant (Ki) in assay [1] was less than 100 nM. In addition, the IC50 in assay [2] was less than 100 nM.

As for `CCC1CN(c2ncc(C(F)(F)F)cn2)Cc2cc(C(=O)N[C@@H](CO)c3ccc(S(=O)(=O)CC)cc3)ccc21` (single isomer, unassigned) [Hy7-17.2], the Ki in assay [1] is less than 100 nM. Also, in assay [2], the IC50 is more than 1000 nM.

With `CC[C@@H]1CN(c2ncc(C(F)(F)F)cn2)Cc2cc(C(=O)N[C@@H](CO)c3ccc(S(=O)(=O)CC)cn3)ccc21` (single isomer, unassigned) [Hy7-18.1], in assay [1], the inhibition constant Ki is less than 100 nM. In addition, in assay [2], the IC50 was less than 100 nM.

As to `CC[C@@H]1CN(c2ncc(C(F)(F)F)cn2)Cc2cc(C(=O)N[C@H](CO)c3ccc(S(=O)(=O)CC)cn3)ccc21` (single isomer, unassigned) [Hy7-18.2], the Ki in assay [1] is less than 100 nM. In addition, the IC50 in assay [2] is more than 1000 nM.

Consider `CC[C@@H]1CN(c2ncc(-c3cccc(OC)n3)cn2)Cc2cc(C(=O)NCc3ccc(S(=O)(=O)CC)cc3)ccc21` (single isomer, unassigned) [Hy7-20.1], for which the Ki in assay [1] is less than 100 nM. Besides, in assay [2], the IC50 is less than 100 nM.

Consider `CCS(=O)(=O)c1ccc(CNC(=O)c2ccc3c(c2)CN(c2ncc(-c4ccc(=O)[nH]c4)cn2)C[C@H]3C(C)C)cc1` (single isomer, unassigned) [Hy7-21.1], for which the Ki in assay [1] was less than 100 nM. The IC50 in assay [2] is 100 to 1000 nM.

For the compound `CC[C@@H]1CN(c2ncc(C(F)(F)F)cc2C)Cc2cc(C(=O)N[C@@H](CO)c3ccc(S(=O)(=O)CC)cc3)ccc21` (single isomer, unassigned) [Hy7-22.1], the Ki in assay [1] was less than 100 nM. In addition, the IC50 in assay [2] is less than 100 nM.

In the case of `CC[C@H]1CN(c2ncc(C(F)(F)F)cc2C)Cc2cc(C(=O)N[C@@H](CO)c3ccc(S(=O)(=O)CC)cc3)ccc21` (single isomer, unassigned) [Hy7-22.2], in assay [1], the Ki is less than 100 nM. Moreover, the IC50 in assay [2] was 100 to 1000 nM.

Consider `CCS(=O)(=O)c1ccc(CNC(=O)c2ccc3c(c2)CN(c2ncc(-c4ccnc(OC)c4)cn2)C[C@H]3C(C)C)cc1` (single isomer, unassigned) [Hy7-23.1], for which the Ki in assay [1] is less than 100 nM. Also, the IC50 in assay [2] is less than 100 nM.

Turning to `CCS(=O)(=O)c1ccc(CNC(=O)c2ccc3c(c2)CN(c2ncc(-c4ccc(=O)n(C)c4)cn2)C[C@H]3C(C)C)cc1` (single isomer, unassigned) [Hy7-24.1], the Ki in assay [1] is less than 100 nM. For the same compound, the IC50 in assay [2] is less than 100 nM.

As for `CCS(=O)(=O)c1ccc(CNC(=O)c2ccc3c(c2)CN(c2ncc(-c4ccn(C)c(=O)c4)cn2)C[C@H]3C(C)C)cc1` (single isomer, unassigned) [Hy7-25.1], the Ki in assay [1] was less than 100 nM. For the same compound, the IC50 in assay [2] fell in the range of 100 to 1000 nM.

`CCOC(=O)c1cnc(N2Cc3cc(C(=O)NCc4ccc(S(=O)(=O)CC)cc4)ccc3[C@H](C(C)C)C2)nc1C(F)(F)F` (single isomer, unassigned) [Hy7-26.1]: in assay [1], the Ki was less than 100 nM. Moreover, the IC50 in assay [2] was less than 100 nM.

On to `CCOC(=O)c1cnc(N2Cc3cc(C(=O)NCc4ccc(S(=O)(=O)CC)cc4)ccc3[C@@H](C(C)C)C2)nc1C(F)(F)F` (single isomer, unassigned) [Hy7-26.2], for which the Ki in assay [1] was less than 100 nM. In addition, in assay [2], the IC50 was 100 to 1000 nM.

Take `CCS(=O)(=O)c1ccc(CNC(=O)c2ccc3c(c2)CN(Cc2ccc(F)cc2)C[C@H]3C(C)C)cc1` (single isomer, unassigned) [Hy7-27.1]: the Ki in assay [1] was less than 100 nM. The IC50 in assay [2] is more than 1000 nM.

As for `CCS(=O)(=O)c1ccc(CNC(=O)c2ccc3c(c2)CN(Cc2ccc(F)cc2)C[C@@H]3C(C)C)cc1` (single isomer, unassigned) [Hy7-27.2], the Ki in assay [1] is less than 100 nM. The IC50 in assay [2] was less than 100 nM.

Turning to `CCS(=O)(=O)c1ccc(CNC(=O)c2ccc3c(c2)CN(Cc2ccc(C#N)cc2)C[C@H]3C(C)C)cc1` (single isomer, unassigned) [Hy7-28.1], the Ki in assay [1] is less than 100 nM. Moreover, the IC50 in assay [2] lay within 100 to 1000 nM.

Consider `CCS(=O)(=O)c1ccc(CNC(=O)c2ccc3c(c2)CN(Cc2ccc(C#N)cc2)C[C@@H]3C(C)C)cc1` (single isomer, unassigned) [Hy7-28.2], for which the inhibition constant (Ki) in assay [1] is less than 100 nM. In assay [2], the IC50 is less than 100 nM.

Regarding `CCS(=O)(=O)c1ccc(CNC(=O)c2ccc3c(c2)CN(Cc2ccc(Cl)cc2)C[C@H]3C(C)C)cc1` (single isomer, unassigned) [Hy7-29.1], the Ki in assay [1] is less than 100 nM. Further, the IC50 in assay [2] is more than 1000 nM.

In the case of `CCS(=O)(=O)c1ccc(CNC(=O)c2ccc3c(c2)CN(Cc2ccc(Cl)cc2)C[C@@H]3C(C)C)cc1` (single isomer, unassigned) [Hy7-29.2], the inhibition constant (Ki) in assay [1] is less than 100 nM. The IC50 in assay [2] was in the range of 100 to 1000 nM.

On to `CC[C@@H]1CN(c2ncc(-c3ncco3)cn2)Cc2cc(C(=O)NCc3ccc(S(=O)(=O)CC)cc3)ccc21` (single isomer, unassigned) [Hy7-31.1], for which the Ki in assay [1] was less than 100 nM. Further, in assay [2], the IC50 was less than 100 nM.

For the compound `CC[C@H]1CN(c2ncc(-c3ncco3)cn2)Cc2cc(C(=O)NCc3ccc(S(=O)(=O)CC)cc3)ccc21` (single isomer, unassigned) [Hy7-31.2], in assay [1], the Ki was less than 100 nM. The IC50 in assay [2] is more than 1000 nM.

Consider `CC[C@@H]1CN(C2CCC(F)(F)CC2)Cc2cc(C(=O)N[C@@H](CO)c3ccc(S(=O)(=O)CC)cc3)ccc21` (single isomer, unassigned) [Hy7-32.1], for which, in assay [1], the Ki is less than 100 nM. Besides, in assay [2], the IC50 is more than 1000 nM.
